We go through one compound from patent publication US10323035B2, “Co-crystal of a CDK inhibitor and an MEK inhibitor and process of preparation thereof” (CRYSTAL PHARMATECH CO., LTD, priority 2015, dated 2019).

Structures are written as SMILES.

A short description of this data set: Pharmacokinetics in rats after oral administration. It is filed as in vivo. To be noted: male, SD, blood. The method, then:
Investigations on the pharmacokinetic characteristics of MEK162 free base single compound (group A), equimolar physical mixture of MEK162 and LEE011 succinate (group B) and co-crystal Form I of MEK162-LEE011 (group C) in the rats were conducted. Male SD rats with standard weight were chosen as experimental objects, three rats in a group and were orally administrated. The dosage in group A was 5 mg·kg^−1 (calculated as free base), the dosages of two components in group B were both 5 mg·kg^−1 (calculated as free base), the dosage in group C was 10 mg·kg^−1 (calculated as co-crystal anhydrate form), and dosage of these two components was around 5 mg·kg^−1 (calculated as free base) as calculated by molecular weight.

Consider `Cn1cnc2c(F)c(Nc3ccc(Br)cc3F)c(C(=O)NOCCO)cc21` [MEK162, 5-[(4-bromo-2-fluorophenyl)amino]-4-fluoro-N-(2-hydroxyethoxy)-1-methyl-1H-benzimidazol-6-carboxamide], for which the Tmax (5 mg·kg^−1, rat, read-out: time to reach maximum concentration (Tmax)) was determined as 15 min. Besides, for the setting “rat, about 5 mg·kg^−1 of each component as free base, read-out: AUC0-inf of MEK162”, the AUC(0-inf) was found to be 11300 ± 895 ng·h/mL. Further, the Cmax (rat, about 5 mg·kg^−1 of each component as free base, read-out: maximum concentration of blood drug (Cmax) of MEK162) is 3240 ± 576 ng/mL.
